# Results published in patent publication US9695155B2, “Herbicidal substituted pyrimidinyloxy benzene compounds” (E. I. DU PONT DE NEMOURS AND COMPANY, priority 2013, dated 2017).
# Key:
# giant foxtail [1] = assay: Test A preemergence; assay type: in vivo, Setaria faberii; conditions: Setaria faberi, pre-emergence, 240 h, 0 to 100 scale where 0 is no effect and 100 is complete control
# In short: (§1)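 Visual 0–100 rating (100 = complete control) taken about 10 d post-treatment relative to untreated checks. Preemergence: directed soil spray on sown loam/sand pots. Postemergence: seedlings 2–10 cm, 1–2 leaf. Non-phytotoxic solvent formulation with surfactant.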
# pigweed [2] = assay: Test A preemergence; assay type: in vivo, Amaranthus retroflexus
# In short: as §1
# velvetleaf = assay: Test A postemergence; assay type: in vivo, Abutilon theophrasti; conditions: 0 to 100 scale where 0 is no effect and 100 is complete control
# In short: as §1
# rice = assay: Test B flooded paddy test; assay type: in vivo, Oryza sativa; conditions: Oryza sativa; Flood, 250 g ai/ha; 0 to 100 scale where 0 is no effect and 100 is complete control; read-out: Plant response rating, Rice
# In short: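 Evaluation is visual, against untreated controls, 13 to 15 days after treatment. Before treatment, plants reached the 2-leaf stage; pots were then flooded 3 cm deep, compound was added to the water, and that level was maintained. Ratings run 0 to 100, with 100 meaning complete control.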
# giant foxtail [3] = assay: Test C preemergence; assay type: in vivo, Setaria faberii; conditions: Setaria faberi, pre-emergence
# In short: (§2)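 Plants were kept under greenhouse conditions for 13–15 days following spray. Pre-emergent application went to soil (loam–sand), post-emergent to foliage at 1–4 leaves. Evaluation: visual, percent control against untreated checks.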
# yellow nutsedge [4] = assay: Test C preemergence; assay type: in vivo, Cyperus esculentus; conditions: Cyperus, pre-emergence, preemergence, read-out: Nutsedge, Yellow plant response rating
# In short: as §2
# pigweed [5] = assay: Test C preemergence; assay type: in vivo, Amaranthus retroflexus; conditions: Amaranthus retroflexus, pre-emergence, preemergence, read-out: Pigweed plant response rating
# In short: as §2
# barnyardgrass [6] = assay: Test C preemergence; assay type: in vivo, Echinochloa crus-galli; conditions: Echinochloa crus-galli, pre-emergence
# In short: as §2
# Italian ryegrass = assay: Test C postemergence; assay type: in vivo, Lolium multiflorum
# In short: as §2
# wheat, winter = assay: Test C postemergence; assay type: in vivo, Triticum aestivum
# In short: as §2
# galium = assay: Test C postemergence; assay type: in vivo, Galium aparine; conditions: Galium, post-emergence
# In short: as §2
# corn = assay: Test C postemergence; assay type: in vivo, Zea mays; conditions: Zea mays, post-emergence
# In short: as §2
# yellow nutsedge [7] = assay: Test C postemergence; assay type: in vivo, Cyperus esculentus
# In short: as §2
# barnyardgrass [8] = assay: Test C postemergence; assay type: in vivo, Echinochloa crus-galli; conditions: Echinochloa crus-galli, post-emergence
# In short: as §2
# kochia = assay: Test C postemergence; assay type: in vivo, Kochia scoparia; conditions: Bassia scoparia, post-emergence
# In short: as §2
# [9] = 16 g ai/ha, scale 0 to 100 (0 no effect, 100 complete control)
# [10] = 62 g ai/ha, scale 0 (no effect) to 100 (complete control)
# [11] = 125 g ai/ha, scale 0 (no effect) to 100 (complete control)
# [12] = 31 g ai/ha, postemergence, visual rating, scale 0 to 100 (0 no effect, 100 complete control), 13 to 15 days
smiles,measurement,setting,value
"FC(F)(F)c1cn(-c2ccccc2Oc2ncc(Cl)cn2)nn1 [Compound 166, 5-chloro-2-[2-[4-(trifluoromethyl)-1H-1,2,3-triazol-1-yl]phenoxy]pyrimidine]",pest or weed control at 125 g/ha,"giant foxtail [1]; 125 g ai/ha, read-out: Plant response rating, Foxtail, Giant",100%
same,pest or weed control at 500 g/ha,"giant foxtail [1]; 500 g ai/ha, read-out: Foxtail, Giant plant response rating",100%
same,Pigweed plant response rating (0 to 100 scale),pigweed [2]; 125 g ai/ha,100
same,pest or weed control at 500 g/ha,"pigweed [2]; Amaranthus retroflexus, pre-emergence, 240 h, 500 g ai/ha, 0 to 100 scale where 0 is no effect and 100 is complete control, read-out: Pigweed plant response rating",100%
same,Velvetleaf plant response rating,velvetleaf; 125 g ai/ha,100
same,pest or weed control at 500 g/ha,"velvetleaf; Abutilon theophrasti, post-emergence, 240 h, 500 g ai/ha, read-out: Plant response rating, Velvetleaf",100%
same,plant injury at 250 g/ha,rice,75%
same,pest or weed control at 16 g/ha,"giant foxtail [3]; 16 g ai/ha, preemergence, scale 0 to 100 (0 no effect, 100 complete control), read-out: Foxtail, Giant plant response rating",100%
same,pest or weed control at 62 g/ha,"giant foxtail [3]; 62 g ai/ha, preemergence, scale 0 (no effect) to 100 (complete control), read-out: Foxtail, Giant plant response rating",100%
same,pest or weed control at 125 g/ha,"giant foxtail [3]; 125 g ai/ha, preemergence, scale 0 (no effect) to 100 (complete control), read-out: Foxtail, Giant plant response rating",100%
same,pest or weed control at 31 g/ha,"giant foxtail [3]; Preemergence, 31 g ai/ha, scale 0 to 100, 0 no effect, 100 complete control, read-out: Plant response rating, Foxtail, Giant",100%
same,pest or weed control at 16 g/ha,yellow nutsedge [4]; [9],0%
same,pest or weed control at 62 g/ha,yellow nutsedge [4]; [10],35%
same,pest or weed control at 125 g/ha,yellow nutsedge [4]; [11],80%
same,pest or weed control at 16 g/ha,pigweed [5]; [9],100%
same,pest or weed control at 62 g/ha,pigweed [5]; [10],100%
same,pest or weed control at 125 g/ha,pigweed [5]; [11],100%
same,pest or weed control at 16 g/ha,"barnyardgrass [6]; 16 g ai/ha, preemergence, scale 0 to 100 (0 no effect, 100 complete control), read-out: Barnyardgrass plant response rating",85%
same,pest or weed control at 62 g/ha,"barnyardgrass [6]; 62 g ai/ha, preemergence, scale 0 (no effect) to 100 (complete control), read-out: Barnyardgrass plant response rating",100%
same,pest or weed control at 125 g/ha,"barnyardgrass [6]; 125 g ai/ha, preemergence, scale 0 (no effect) to 100 (complete control), read-out: Barnyardgrass plant response rating",100%
same,pest or weed control at 31 g/ha,"barnyardgrass [6]; Preemergence, 31 g ai/ha, scale 0 to 100, 0 no effect, 100 complete control, read-out: Plant response rating, Barnyardgrass",100%
same,"Ryegrass, Italian plant response rating",Italian ryegrass; [12],5
same,pest or weed control at 16 g/ha,"Italian ryegrass; Lolium multiflorum, post-emergence, 16 g ai/ha, postemergence, 0 is no effect, 100 is complete control, read-out: Plant response rating (0 to 100), Ryegrass, Italian",0%
same,pest or weed control at 125 g/ha,"Italian ryegrass; Lolium multiflorum, post-emergence, 125 g ai/ha, postemergence, visual rating, scale 0 to 100 (0 no effect, 100 complete control), read-out: Plant response rating, Ryegrass, Italian",30%
same,pest or weed control at 62 g/ha,"Italian ryegrass; Lolium multiflorum, post-emergence, Postemergence, 62 g ai/ha, scale 0 to 100 (0 no effect, 100 complete control), read-out: Plant response rating, Ryegrass, Italian",15%
same,Wheat plant response rating,"wheat, winter; [12]",5
same,plant injury at 16 g/ha,"wheat, winter; Triticum aestivum, post-emergence, 16 g ai/ha, postemergence, 0 is no effect, 100 is complete control, read-out: Plant response rating (0 to 100), Wheat",5%
same,plant injury at 125 g/ha,"wheat, winter; Triticum aestivum, post-emergence, 125 g ai/ha, postemergence, visual rating, scale 0 to 100 (0 no effect, 100 complete control), read-out: Plant response rating, Wheat",20%
same,plant injury at 62 g/ha,"wheat, winter; Triticum aestivum, post-emergence, Postemergence, 62 g ai/ha, scale 0 to 100 (0 no effect, 100 complete control), read-out: Plant response rating, Wheat",35%
same,pest or weed control at 16 g/ha,"galium; 16 g ai/ha, postemergence, 0 is no effect, 100 is complete control, read-out: Plant response rating (0 to 100), Galium",80%
same,pest or weed control at 31 g/ha,"galium; 31 g ai/ha, postemergence, visual rating, scale 0 to 100 (0 no effect, 100 complete control), 13 to 15 days, read-out: Galium plant response rating",85%
same,pest or weed control at 125 g/ha,"galium; 125 g ai/ha, postemergence, visual rating, scale 0 to 100 (0 no effect, 100 complete control), read-out: Plant response rating, Galium",95%
same,pest or weed control at 62 g/ha,"galium; Postemergence, 62 g ai/ha, scale 0 to 100 (0 no effect, 100 complete control), read-out: Plant response rating, Galium",90%
same,plant injury at 16 g/ha,"corn; 16 g ai/ha, postemergence, 0 is no effect, 100 is complete control, read-out: Plant response rating (0 to 100), Corn",5%
same,plant injury at 31 g/ha,"corn; 31 g ai/ha, postemergence, visual rating, scale 0 to 100 (0 no effect, 100 complete control), 13 to 15 days, read-out: Corn plant response rating",5%
same,"Corn plant response rating (crop injury, 0 = no effect, 100 = complete kill) at 125 g/ha","corn; 125 g ai/ha, postemergence, visual rating, scale 0 to 100 (0 no effect, 100 complete control)",15%
same,"Corn plant response rating (crop injury, 0 = no effect, 100 = complete kill) at 62 g/ha","corn; Postemergence, 62 g ai/ha, scale 0 to 100 (0 no effect, 100 complete control)",10%
same,"Nutsedge, Yellow plant response rating",yellow nutsedge [7]; [12],5
same,pest or weed control at 16 g/ha,"yellow nutsedge [7]; Cyperus, post-emergence, 16 g ai/ha, postemergence, 0 is no effect, 100 is complete control, read-out: Plant response rating (0 to 100), Nutsedge, Yellow",0%
same,pest or weed control at 125 g/ha,"yellow nutsedge [7]; Cyperus, post-emergence, 125 g ai/ha, postemergence, visual rating, scale 0 to 100 (0 no effect, 100 complete control), read-out: Plant response rating, Nutsedge, Yellow",5%
same,pest or weed control at 62 g/ha,"yellow nutsedge [7]; Cyperus, post-emergence, Postemergence, 62 g ai/ha, scale 0 to 100 (0 no effect, 100 complete control), read-out: Plant response rating, Nutsedge, Yellow",5%
same,pest or weed control at 16 g/ha,"barnyardgrass [8]; 16 g ai/ha, postemergence, 0 is no effect, 100 is complete control, read-out: Plant response rating (0 to 100), Barnyardgrass",5%
same,pest or weed control at 31 g/ha,"barnyardgrass [8]; 31 g ai/ha, postemergence, visual rating, scale 0 to 100 (0 no effect, 100 complete control), 13 to 15 days, read-out: Barnyardgrass plant response rating",10%
same,pest or weed control at 125 g/ha,"barnyardgrass [8]; 125 g ai/ha, postemergence, visual rating, scale 0 to 100 (0 no effect, 100 complete control), read-out: Plant response rating, Barnyardgrass",15%
same,pest or weed control at 62 g/ha,"barnyardgrass [8]; Postemergence, 62 g ai/ha, scale 0 to 100 (0 no effect, 100 complete control), read-out: Plant response rating, Barnyardgrass",10%
same,pest or weed control at 16 g/ha,"kochia; 16 g ai/ha, postemergence, 0 is no effect, 100 is complete control, read-out: Plant response rating (0 to 100), Kochia",90%
same,pest or weed control at 31 g/ha,"kochia; 31 g ai/ha, postemergence, visual rating, scale 0 to 100 (0 no effect, 100 complete control), 13 to 15 days, read-out: Kochia plant response rating",90%
same,pest or weed control at 125 g/ha,"kochia; 125 g ai/ha, postemergence, visual rating, scale 0 to 100 (0 no effect, 100 complete control), read-out: Plant response rating, Kochia",100%
same,pest or weed control at 62 g/ha,"kochia; Postemergence, 62 g ai/ha, scale 0 to 100 (0 no effect, 100 complete control), read-out: Plant response rating, Kochia",90%
